Reference: the supplement of paper PMC4858399

How the values were obtained:
Settings in all cases: exposure time 48 h
[1] = system: Caenorhabditis elegans N2; test: mean nematode size ln(EXT) after 48 h, plate-adjusted (DMSO control set to 6) (ln(EXT), control-adjusted); higher = larger nematodes / less growth inhibition
Method in brief: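 In K-medium with killed OP50, 1% DMSO and 0.5–200 µM chemical, synchronised N2 L1 larvae of C. elegans (50 per well) grew for 48 h at 20°C. Extinction was read for every worm on the Biosort, with debris removed by a growth model. Natural-log values averaged per well gave mean size, which was corrected per plate by subtracting the vehicle control mean and adding 6.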

[2] = system: Caenorhabditis elegans N2; test: AC50 for larval growth inhibition (Hill fit); higher = less potent
Method in brief: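 C. elegans N2 L1 larvae, synchronised and plated at 50 per well in 96-well plates, were exposed for 48 h at 20°C to 0.5–200 µM chemical in K-medium with killed OP50 and 1% DMSO. Log-transformed extinction from a COPAS Biosort served as worm size, averaged per well. Wells containing at least 10 worms entered the fit. A constrained Hill fit by weighted genetic-algorithm regression yielded the AC50, censored when out of range.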

[3] = system: Caenorhabditis elegans N2; test: lowest effective concentration for larval growth inhibition (size below effect threshold); higher = less potent
Method in brief: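 Log-transformed well means of per-worm extinction, read as size on a Biosort, came from 50 C. elegans N2 L1 larvae per 96-well grown 48 h at 20°C in K-medium with killed bacteria, 1% DMSO and 0.5 to 200 µM chemical. The lowest effective concentration is the first dose at which the plate-adjusted mean size is below the threshold and stays below it at every higher dose. The threshold is 5.665.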

CN(C)c1ccc(C(=O)c2ccc(N(C)C)cc2)cc1 [Michler's ketone]
mean nematode size ln(EXT) (ln) ([1]; 0.5 µM): 5.78 | mean nematode size ln(EXT) (ln) ([1]; 1 µM): 5.87 | mean nematode size ln(EXT) (ln) ([1]; 5 µM): 5.83 | mean nematode size ln(EXT) (ln) ([1]; 10 µM): 5.78 | mean nematode size ln(EXT) (ln) ([1]; 50 µM): 5.82 | mean nematode size ln(EXT) (ln) ([1]; 100 µM): 5.88 | mean nematode size ln(EXT) (ln) ([1]; 200 µM): 5.58 | AC50 for larval growth inhibition [2]: > 200 µM | lowest effective concentration [3]: 200 µM

ClC1(Cl)C2(Cl)C3(Cl)C4(Cl)C(Cl)(Cl)C5(Cl)C3(Cl)C1(Cl)C5(Cl)C24Cl (stereo not drawn) [Mirex]
mean nematode size ln(EXT) (ln) ([1]; 0.5 µM): 5.34 | mean nematode size ln(EXT) (ln) ([1]; 1 µM): 5.5 | mean nematode size ln(EXT) (ln) ([1]; 5 µM): 5.57 | mean nematode size ln(EXT) (ln) ([1]; 10 µM): 6.06 | mean nematode size ln(EXT) (ln) ([1]; 50 µM): 5.56 | mean nematode size ln(EXT) (ln) ([1]; 100 µM): 5.51 | mean nematode size ln(EXT) (ln) ([1]; 200 µM): 5.59 | AC50 for larval growth inhibition [2]: > 200 µM | lowest effective concentration [3]: 50 µM

CCSC(=O)N1CCCCCC1 [Molinate]
mean nematode size ln(EXT) (ln) ([1]; 0.5 µM): 5.42 | mean nematode size ln(EXT) (ln) ([1]; 1 µM): 5.42 | mean nematode size ln(EXT) (ln) ([1]; 5 µM): 5.29 | mean nematode size ln(EXT) (ln) ([1]; 10 µM): 5.63 | mean nematode size ln(EXT) (ln) ([1]; 50 µM): 5.44 | mean nematode size ln(EXT) (ln) ([1]; 100 µM): 5.62 | mean nematode size ln(EXT) (ln) ([1]; 200 µM): 5.21 | AC50 for larval growth inhibition [2]: > 200 µM | lowest effective concentration [3]: ≤ 0.5 µM

CN(C)C(=O)Nc1ccc(Cl)cc1 [Monuron]
mean nematode size ln(EXT) (ln) ([1]; 0.5 µM): 5.99 | mean nematode size ln(EXT) (ln) ([1]; 1 µM): 6 | mean nematode size ln(EXT) (ln) ([1]; 5 µM): 5.94 | mean nematode size ln(EXT) (ln) ([1]; 10 µM): 5.98 | mean nematode size ln(EXT) (ln) ([1]; 50 µM): 5.86 | mean nematode size ln(EXT) (ln) ([1]; 100 µM): 5.79 | mean nematode size ln(EXT) (ln) ([1]; 200 µM): 5.34 | AC50 for larval growth inhibition [2]: > 200 µM | lowest effective concentration [3]: 200 µM

CCCCC(C#N)(Cn1cncn1)c1ccc(Cl)cc1 (stereo not drawn) [Myclobutanil]
mean nematode size ln(EXT) (ln) ([1]; 0.5 µM): 5.83 | mean nematode size ln(EXT) (ln) ([1]; 1 µM): 5.77 | mean nematode size ln(EXT) (ln) ([1]; 5 µM): 5.8 | mean nematode size ln(EXT) (ln) ([1]; 10 µM): 5.86 | mean nematode size ln(EXT) (ln) ([1]; 50 µM): 5.68 | mean nematode size ln(EXT) (ln) ([1]; 100 µM): 5.55 | mean nematode size ln(EXT) (ln) ([1]; 200 µM): 4.8 | AC50 for larval growth inhibition [2]: > 200 µM | lowest effective concentration [3]: 100 µM

CCN(CC)c1ccccc1 [N,N-Diethyl aniline]
mean nematode size ln(EXT) (ln) ([1]; 0.5 µM): 6.08 | mean nematode size ln(EXT) (ln) ([1]; 1 µM): 6.09 | mean nematode size ln(EXT) (ln) ([1]; 5 µM): 5.9 | mean nematode size ln(EXT) (ln) ([1]; 10 µM): 6 | mean nematode size ln(EXT) (ln) ([1]; 50 µM): 5.98 | mean nematode size ln(EXT) (ln) ([1]; 100 µM): 6.05 | mean nematode size ln(EXT) (ln) ([1]; 200 µM): 4.83 | AC50 for larval growth inhibition [2]: 186 µM | lowest effective concentration [3]: 200 µM

CCCCCCCCN(C)C [N,N-Dimethyloctylamine]
mean nematode size ln(EXT) (ln) ([1]; 0.5 µM): 5.85 | mean nematode size ln(EXT) (ln) ([1]; 1 µM): 5.83 | mean nematode size ln(EXT) (ln) ([1]; 5 µM): 5.81 | mean nematode size ln(EXT) (ln) ([1]; 10 µM): 5.79 | mean nematode size ln(EXT) (ln) ([1]; 50 µM): 5.85 | mean nematode size ln(EXT) (ln) ([1]; 100 µM): 5.88 | mean nematode size ln(EXT) (ln) ([1]; 200 µM): 5.65 | AC50 for larval growth inhibition [2]: > 200 µM | lowest effective concentration [3]: 200 µM

CCCCCCCCCCCCN1CCCC1=O [N-Lauryl-2-pyrrolidone]
mean nematode size ln(EXT) (ln) ([1]; 0.5 µM): 5.42 | mean nematode size ln(EXT) (ln) ([1]; 1 µM): 5.51 | mean nematode size ln(EXT) (ln) ([1]; 5 µM): 5.45 | mean nematode size ln(EXT) (ln) ([1]; 10 µM): 4.97 | mean nematode size ln(EXT) (ln) ([1]; 50 µM): 3.49 | mean nematode size ln(EXT) (ln) ([1]; 100 µM): 3.53 | mean nematode size ln(EXT) (ln) ([1]; 200 µM): 3.03 | AC50 for larval growth inhibition [2]: 16.1 µM | lowest effective concentration [3]: ≤ 0.5 µM

CCCCCCCCN(C)CCCCCCCC [N-Methyldioctylamine]
mean nematode size ln(EXT) (ln) ([1]; 0.5 µM): 5.78 | mean nematode size ln(EXT) (ln) ([1]; 1 µM): 5.86 | mean nematode size ln(EXT) (ln) ([1]; 5 µM): 5.87 | mean nematode size ln(EXT) (ln) ([1]; 10 µM): 5.75 | mean nematode size ln(EXT) (ln) ([1]; 50 µM): 5.78 | mean nematode size ln(EXT) (ln) ([1]; 100 µM): 5.83 | mean nematode size ln(EXT) (ln) ([1]; 200 µM): 4.13 | AC50 for larval growth inhibition [2]: 182 µM | lowest effective concentration [3]: 200 µM

CCN(CC)N=O [N-Nitrosodiethylamine]
mean nematode size ln(EXT) (ln) ([1]; 0.5 µM): 5.96 | mean nematode size ln(EXT) (ln) ([1]; 1 µM): 5.9 | mean nematode size ln(EXT) (ln) ([1]; 5 µM): 5.89 | mean nematode size ln(EXT) (ln) ([1]; 10 µM): 5.87 | mean nematode size ln(EXT) (ln) ([1]; 50 µM): 5.77 | mean nematode size ln(EXT) (ln) ([1]; 100 µM): 5.75 | mean nematode size ln(EXT) (ln) ([1]; 200 µM): 5.66 | AC50 for larval growth inhibition [2]: > 200 µM | lowest effective concentration [3]: 200 µM

O=NN(c1ccccc1)c1ccccc1 [N-Nitrosodiphenylamine]
mean nematode size ln(EXT) (ln) ([1]; 0.5 µM): 6.12 | mean nematode size ln(EXT) (ln) ([1]; 1 µM): 6.03 | mean nematode size ln(EXT) (ln) ([1]; 5 µM): 6.08 | mean nematode size ln(EXT) (ln) ([1]; 10 µM): 6.08 | mean nematode size ln(EXT) (ln) ([1]; 50 µM): 6 | mean nematode size ln(EXT) (ln) ([1]; 100 µM): 5.87 | mean nematode size ln(EXT) (ln) ([1]; 200 µM): 5.26 | AC50 for larval growth inhibition [2]: > 200 µM | lowest effective concentration [3]: 200 µM

Nc1ccc(Nc2ccccc2)cc1 [N-Phenyl-1,4-benzenediamine]
mean nematode size ln(EXT) (ln) ([1]; 0.5 µM): 5.84 | mean nematode size ln(EXT) (ln) ([1]; 1 µM): 5.84 | mean nematode size ln(EXT) (ln) ([1]; 5 µM): 5.76 | mean nematode size ln(EXT) (ln) ([1]; 10 µM): 5.72 | mean nematode size ln(EXT) (ln) ([1]; 50 µM): 5.43 | mean nematode size ln(EXT) (ln) ([1]; 100 µM): 5.15 | mean nematode size ln(EXT) (ln) ([1]; 200 µM): 5.25 | AC50 for larval growth inhibition [2]: 71.8 µM | lowest effective concentration [3]: 50 µM
